Reference: PubChem BioAssay AID248 (DTP/NCI, 2004)
Several values for one entry are separate records, joined by “and”; a condition that tells them apart may be missing. Identical values can stand only once. Toxic doses and inconclusive results are not listed. Cut-off read from the data, not from the text of the source: active = T/C of 150% or more; inactive = T/C below 125%.

System: L1210 leukemia ip in BDF1 mice, survival T/C
Assay: NCI In Vivo Anticancer Drug Screen. Data for tumor model L1210 Leukemia (intraperitoneal) in B6D2F1 (BDF1) mice
Settings: endpoint: mean survival time, higher = longer survival
In short: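 Antitumor effect is assessed in tumor-bearing animals. Survival in the compound arm is compared with a vehicle-dosed control arm and expressed as their quotient.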

[1] = dose: 100.0 mg/kg/injection, schedule: Q01DX001 (ip), vehicle: saline with Tween-80
[2] = dose: 100.0 mg/kg/injection, schedule: Q01DX009 (ip), vehicle: saline with Tween-80
[3] = dose: 100.0 mg/kg/injection, schedule: Q04DX002 (ip), vehicle: saline with Tween-80
[4] = dose: 100.0 mg/kg/injection, schedule: Q04DX003 (ip), vehicle: saline with Tween-80
[5] = dose: 200.0 mg/kg/injection, schedule: Q01DX001 (ip), vehicle: saline with Tween-80
[6] = dose: 200.0 mg/kg/injection, schedule: Q01DX009 (ip), vehicle: saline with Tween-80
[7] = dose: 200.0 mg/kg/injection, schedule: Q04DX002 (ip), vehicle: saline with Tween-80
[8] = dose: 200.0 mg/kg/injection, schedule: Q04DX003 (ip), vehicle: saline with Tween-80
[9] = dose: 400.0 mg/kg/injection, schedule: Q01DX001 (ip), vehicle: saline with Tween-80
[10] = dose: 400.0 mg/kg/injection, schedule: Q01DX009 (ip), vehicle: saline with Tween-80
[11] = dose: 400.0 mg/kg/injection, schedule: Q04DX002 (ip), vehicle: saline with Tween-80
[12] = dose: 400.0 mg/kg/injection, schedule: Q04DX003 (ip), vehicle: saline with Tween-80
[13] = dose: 12.5 mg/kg/injection, schedule: Q04DX003 (ip), vehicle: saline
[14] = dose: 25.0 mg/kg/injection, schedule: Q04DX003 (ip), vehicle: saline
[15] = dose: 50.0 mg/kg/injection, schedule: Q04DX003 (ip), vehicle: saline
[16] = dose: 100.0 mg/kg/injection, schedule: Q01DX001 (ip), vehicle: saline
[17] = dose: 200.0 mg/kg/injection, schedule: Q01DX001 (ip), vehicle: saline
[18] = dose: 100.0 mg/kg/injection, schedule: Q04DX003 (ip), vehicle: saline
[19] = dose: 100.0 mg/kg/injection, schedule: Q01DX009 (ip), vehicle: saline
[20] = dose: 100.0 mg/kg/injection, schedule: Q04DX003 (ip), vehicle: saline sonified
[21] = dose: 200.0 mg/kg/injection, schedule: Q04DX003 (ip), vehicle: saline sonified
[22] = dose: 400.0 mg/kg/injection, schedule: Q04DX003 (ip), vehicle: saline sonified
[23] = dose: 200.0 mg/kg/injection, schedule: Q01DX001 (ip), vehicle: carboxymethylcellulose (CMC)
[24] = dose: 6.25 mg/kg/injection, schedule: Q04DX003 (ip), vehicle: saline

Measured: T/C

CNc1ccc(S(=O)(=O)c2ccc(NC)c([N+](=O)[O-])c2)cc1[N+](=O)[O-]
inactive: dose: 100.0 mg/kg/injection, schedule: Q01DX005 (ip), vehicle: gum acacia 93 % of control | dose: 100.0 mg/kg/injection, schedule: Q01DX009 (ip), vehicle: gum acacia 94 % of control | dose: 200.0 mg/kg/injection, schedule: Q01DX005 (ip), vehicle: gum acacia 93 % of control | dose: 200.0 mg/kg/injection, schedule: Q01DX009 (ip), vehicle: gum acacia 87 % of control | dose: 400.0 mg/kg/injection, schedule: Q01DX005 (ip), vehicle: gum acacia 96 % of control | dose: 400.0 mg/kg/injection, schedule: Q01DX009 (ip), vehicle: gum acacia 90 % of control

CC(=O)Nc1ccc(NC(=O)c2ccc(Cl)cc2)cc1
inactive: dose: 50.0 mg/kg/injection, schedule: Q01DX001 (ip), vehicle: saline with Tween-80 95 % of control | [1] 95 % of control | [2] 97 % of control and 87 % of control | [3] 90 % of control and 91 % of control | [4] 92 % of control | [5] 90 % of control | [6] 95 % of control and 97 % of control | [7] 93 % of control and 97 % of control | [8] 89 % of control | [9] 87 % of control | [10] 97 % of control and 90 % of control | [11] 90 % of control and 92 % of control | [12] 87 % of control

CC(C)(C)c1ccc(N)cc1
inactive: [13] 106 % of control | [14] 95 % of control | [15] 98 % of control

Cn1c(=O)c2[nH]c(C3CC4C=CC3C4)nc2n(C)c1=O (centres undefined)
inactive: dose: 50.0 mg/kg/injection, schedule: Q01DX001 (ip), vehicle: saline 93 % of control | [16] 104 % of control | [17] 98 % of control

CCSC(SCC)C(OC(C)=O)C(OC(C)=O)C(OC(C)=O)C(C)OC(C)=O (centres undefined)
inactive: [1] 99 % of control | [2] 95 % of control and 89 % of control | [3] 93 % of control and 105 % of control | [4] 107 % of control | [5] 103 % of control | [6] 98 % of control and 100 % of control | [7] 94 % of control and 92 % of control | [8] 91 % of control | [9] 101 % of control | [10] 87 % of control and 88 % of control | [11] 100 % of control and 87 % of control | [12] 93 % of control

c1ccc2c(c1)Sc1cnccc1N2CC1CO1 (centres undefined)
inactive: [18] 96 % of control | dose: 200.0 mg/kg/injection, schedule: Q04DX003 (ip), vehicle: saline 92 % of control | dose: 400.0 mg/kg/injection, schedule: Q04DX003 (ip), vehicle: saline 96 % of control

COC(=O)CCC(C)C1CCC2C3C(OC(C)=O)CC4CC(O)CCC4(C)C3CC(O)C12C (centres undefined)
inactive: dose: 100.0 mg/kg/injection, schedule: Q01DX009 (ip), vehicle: carboxymethylcellulose (CMC) 93 % of control and 107 % of control | dose: 100.0 mg/kg/injection, schedule: Q04DX002 (ip), vehicle: carboxymethylcellulose (CMC) 93 % of control and 97 % of control | dose: 100.0 mg/kg/injection, schedule: Q04DX003 (ip), vehicle: carboxymethylcellulose (CMC) 104 % of control | dose: 200.0 mg/kg/injection, schedule: Q01DX009 (ip), vehicle: carboxymethylcellulose (CMC) 91 % of control and 92 % of control | dose: 200.0 mg/kg/injection, schedule: Q04DX002 (ip), vehicle: carboxymethylcellulose (CMC) 97 % of control and 98 % of control | dose: 200.0 mg/kg/injection, schedule: Q04DX003 (ip), vehicle: carboxymethylcellulose (CMC) 97 % of control | dose: 400.0 mg/kg/injection, schedule: Q01DX009 (ip), vehicle: carboxymethylcellulose (CMC) 94 % of control and 88 % of control | dose: 400.0 mg/kg/injection, schedule: Q04DX002 (ip), vehicle: carboxymethylcellulose (CMC) 97 % of control | dose: 400.0 mg/kg/injection, schedule: Q04DX003 (ip), vehicle: carboxymethylcellulose (CMC) 95 % of control

CCCC(=O)Nc1cc([N+](=O)[O-])ccc1OC
inactive: dose: 100.0 mg/kg/injection, schedule: Q01DX009 (ip), vehicle: Klucel (hydroxypropylcellulose) (HPC) 104 % of control | dose: 200.0 mg/kg/injection, schedule: Q01DX009 (ip), vehicle: Klucel (hydroxypropylcellulose) (HPC) 104 % of control | dose: 400.0 mg/kg/injection, schedule: Q01DX009 (ip), vehicle: Klucel (hydroxypropylcellulose) (HPC) 98 % of control

O=C(OCCN1CCCC1)C(c1ccccc1)C1(O)CCCC1 (centres undefined)
inactive: dose: 25.0 mg/kg/injection, schedule: Q01DX009 (ip), vehicle: saline 103 % of control | [14] 104 % of control | dose: 50.0 mg/kg/injection, schedule: Q01DX009 (ip), vehicle: saline 102 % of control | [15] 101 % of control | [19] 117 % of control | [18] 96 % of control and 97 % of control

CSc1nc(N)nc2c1ncn2C1CC(O)C(CO)O1 (centres undefined)
inactive: dose: 100.0 mg/kg/injection, schedule: Q01DX005 (ip), vehicle: saline 105 % of control and 112 % of control and 96 % of control | [19] 121 % of control | dose: 200.0 mg/kg/injection, schedule: Q01DX005 (ip), vehicle: saline 112 % of control and 121 % of control and 91 % of control | dose: 200.0 mg/kg/injection, schedule: Q01DX009 (ip), vehicle: saline 115 % of control | dose: 400.0 mg/kg/injection, schedule: Q01DX009 (ip), vehicle: saline 116 % of control

CCCCCSP(=S)(C(C)C)C(C)C
inactive: [1] 95 % of control | [5] 93 % of control | [9] 91 % of control

Cc1ccc2ccccc2c1N(CC(=O)O)S(=O)(=O)c1ccccc1 (tested in a mixture with another compound)
inactive: [20] 94 % of control | [21] 94 % of control | [22] 112 % of control

O=[N+]([O-])c1ccc2[nH]ccc2c1
inactive: [16] 98 % of control | [17] 104 % of control | dose: 400.0 mg/kg/injection, schedule: Q01DX001 (ip), vehicle: saline 102 % of control

COC(=O)C1OC1c1ccc2c(c1)OCO2 (centres undefined)
inactive: dose: 88.8 mg/kg/injection, schedule: Q01DX001 (ip), vehicle: carboxymethylcellulose (CMC) 97 % of control and 98 % of control | dose: 133.4 mg/kg/injection, schedule: Q01DX001 (ip), vehicle: carboxymethylcellulose (CMC) 95 % of control and 106 % of control | [23] 95 % of control and 97 % of control | dose: 300.0 mg/kg/injection, schedule: Q01DX001 (ip), vehicle: carboxymethylcellulose (CMC) 93 % of control and 101 % of control

Nc1ccc(SCC(=O)O)cc1
inactive: dose: 75.0 mg/kg/injection, schedule: Q01DX001 (ip), vehicle: saline 94 % of control | dose: 150.0 mg/kg/injection, schedule: Q01DX001 (ip), vehicle: saline 100 % of control | dose: 300.0 mg/kg/injection, schedule: Q01DX001 (ip), vehicle: saline 92 % of control

FCCBr
inactive: dose: 3.12 mg/kg/injection, schedule: Q04DX003 (ip), vehicle: saline 104 % of control | [24] 104 % of control | dose: 12.5 mg/kg/injection, schedule: Q01DX009 (ip), vehicle: water 100 % of control | [13] 107 % of control | [14] 112 % of control | dose: 25.0 mg/kg/injection, schedule: Q04DX003 (ip), vehicle: water 97 % of control | dose: 100.0 mg/kg/injection, schedule: Q04DX003 (ip), vehicle: water 112 % of control

NC1C(O)C(N)C(O)C(O)C1O (centres undefined)
inactive: [20] 97 % of control | [21] 97 % of control | [22] 95 % of control

Nc1cc(N)cc([N+](=O)[O-])c1
inactive: dose: 3.12 mg/kg/injection, schedule: Q01DX009 (ip), vehicle: saline 103 % of control | dose: 6.25 mg/kg/injection, schedule: Q01DX009 (ip), vehicle: saline 103 % of control | [24] 101 % of control | dose: 12.5 mg/kg/injection, schedule: Q01DX009 (ip), vehicle: saline 95 % of control | [13] 101 % of control | [14] 101 % of control | dose: 50.0 mg/kg/injection, schedule: Q01DX001 (ip), vehicle: carboxymethylcellulose (CMC) 113 % of control | dose: 100.0 mg/kg/injection, schedule: Q01DX001 (ip), vehicle: carboxymethylcellulose (CMC) 109 % of control | [23] 107 % of control | dose: 400.0 mg/kg/injection, schedule: Q01DX001 (ip), vehicle: carboxymethylcellulose (CMC) 109 % of control
